Experimental data: patent US8084424B2, “Compositions and methods related to erythropoietin” (University of Utah Research Foundation, priority 2003, dated 2011)
Where a SMILES comes first, the peptide text is derived from it. [ ]: non-standard residue; d: D form. The star is where a group is joined. Sta = CC(C)C[C@H](N)[C@@H](O)CC(=O)O; Isovaleryl = CC(C)CC(=O)*

Tests used:
proteases = test: Protease inhibitor test: EPO degradation in concentrated medium at pH5.0, assayed by RIA; assay type: biochemical; conditions: pH5.0, 37° C.
Description: Protease inhibitors can also be added to the conditioned medium in order to improve EPO yields. Several commercially available protease inhibitors were tested to see if they could prevent EPO degradation at pH5.0. 10× concentrated (Step 1) EPO medium was diluted 1:10 in 50 mM Na Acetate, pH5.0 and then incubated at 37° C. with or without protease inhibitors at a concentration of 5 micrograms/ml. Aliquots were taken over a period of 29 hours and assayed by RIA. […] Pepstatin was then tested to determine the minimum concentration at which it is effective. Under the same conditions as described above, pepstatin was included into 10× concentrated medium over range of 0.0005 to 1 ug/ml and incubated at 37° C. for 25 hours. […] To test the effect of pepstatin in the purification process, 0.2 ug/ml of pepstatin was added to the 10× concentrated medium and to the buffers for the S-Sepharose column. Under these conditions, 97% of EPO was recovered from the S-Sepharose Fast Flow column compared to approximately 60% without the use of a protease inhibitor.

kidney = test: Renal histology: apoptosis, Trichrome staining for fibrosis, Vimetin immunostaining
From the text: The immunohistochemical methods are standard and routinely used in many research and clinical labs.

[1] = Aggregation and ionisation of Poly-D-glutamic acid in solution; assay type: physicochemical; conditions: 10 mg/ml, solution at pH≦6
From the text: (§1) The mechanism of Poly-D-Glu-induced acute lysosomal storage condition in proximal tubular cells was addressed.

[2] = 24 hour urine volume and urine osmolality; conditions: pre versus post treatment, versus saline
interstitial cells = test: Interstitial cell proliferation in rat kidney (3H-thymidine histoautoradiography, hematoxylin and eosin staining); assay type: in vivo
Description: Sprague-Dawley rats of both sexes, weighing from 180 to 200 g, were used throughout the study. A few days before the experiment, rats were adapted to the housing conditions in a central animal facility (regular 12 hours light/dark cycles, free access to standard rat chow and tap water). […] For histoautoradiographic studies, some treated animals and controls were further injected with 300 μCi of [methyl-^3H]-thymidine intraperitoneally 1 hour before their deaths.
One half of the right kidney was immersed in Boulin solution and processed for paraffin sections (approximately 5-μm thickness) destined for histopathologic and/or histoautoradiographic study. For histopathologic use, sections were stained with hematoxylin and eosin with or without periodic acid-Schiff reagent or with Giemsa stain. Histoautoradiographic studies were performed and the data were presented as described earlier (Kishore et al., 1992; Laurent et al., 1983). Briefly each section was examined along parallel straight lines, extending from the subcapsular to the juxtamedullary region. The number of total and labeled nuclei (S-phase cells) were counted, and the corresponding cell type was identified.
Histoautoradiographic labeling indices were subjected to ANOVA, and the significance of the F value was determined. […]

erythropoietin = test: Immunohistochemical staining of kidney sections for erythropoietin; assay type: in vivo, rat; conditions: for erythropoietin staining of proliferating interstitial cells: 250 mg/kg/day sc for 4 days, euthanized on day 5; for EPO-producing peritubular cells after cessation of treatment: 6 days after the cessation of a 4-day treatment, 250 mg/kg/day
Description: Male Sprague-Dawley rats were divided randomly into two groups. […] Kidneys were harvested quickly from the dead rats and one half of one kidney was immersed in 10% neutral buffered formalin. The formalin fixed kidneys were dehydrated and embedded in paraffin. Sections of 3 to 4 μM thickness were cut on a microtome. Sections were deparaffinized by standard methods and processed for immunohistochemical staining for CD73 (5′-nucleotidase) and erythropoietin (Epo) as described below.
Deparaffinized kidney sections were treated for exposure of antigenic sites and blocked for non-specific binding by standard methods. Following this they were incubated with specific antibodies to CD 73 (marker for resident fibroblasts in kidney) or Epo. Goat polyclonal antibodies to CD73 and Epo were purchased from the Santa Cruz Biotechnology, Santa Cruz, Calif. They were used at a dilution of 1:50. After washing off the unreacted primary antibodies, the sections were incubated with biotinylated anti-goat polyclonal antibody (secondary antibody), followed by incubation with avidin-biotin complex. Sections were then washed and incubated with substrate to visualize the antigen-antibody reactions. Positive labeling in the sections is seen as brownish color. […] Sections were examined under a Reichert Microscope and digital images were captured using a Nikon Coolpix 0995 Digital Camera.

renal cortex = test: Angiogenesis in the renal cortex; assay type: in vivo; conditions: treated rat kidney
[3] = test system: lysosomal enzymes (hexoseaminidase, cathepsin B, acid sphigomyelinase, and sulfatase B); test: Lysosomal enzyme activities in kidney cortex after injection; assay type: in vivo, rat; conditions: one day after injection, not acid phosphatase
From the text: as §1

| Compound | effect on EPO immunoactivity (proteases; 5 micrograms/ml, over 29 hours, RIA) | IC50 (the concentration at which 50% of the proteases are inhibited) (proteases; 10× concentrated medium, 25 hours, range 0.0005 to 1 ug/ml) | mesenchymal changes (Vimetin immunostaining) (kidney; rat, in vivo) | fibrotic changes in the kidney (Trichrome staining) (kidney; versus saline) | size of micronic aggregates formed [1] [μm] | ability of kidneys to concentrate urine as assessed by urine osmolality [2] | significant proliferative response of peritubular cells (3H-thymidine incorporation) (interstitial cells; 7 days after the cessation of treatment, earlier studies) | interstitial cell labeling (3H-thymidine) (interstitial cells; female rats treated for 2 days, versus saline) | erythropoietin staining of proliferating interstitial cells (erythropoietin; listed as Poly-D-Glu) | erythropoietin staining of proliferating interstitial cells (erythropoietin; listed as poly-D-glutamic acid) | EPO-producing peritubular cells after cessation of treatment (erythropoietin) | EPO-producing peritubular cells after cessation of treatment (erythropoietin; listed as Poly-D-Glu) | angiogenesis in the renal cortex (renal cortex) | activities of several lysosomal enzymes in the kidney cortex [3] |
| --- | --- | --- | --- | --- | --- | --- | --- | --- | --- | --- | --- | --- | --- | --- |
| CC(C)CC(=O)N[C@H](C(=O)N[C@H](C(=O)N[C@@H](CC(C)C)[C@@H](O)CC(=O)N[C@@H](C)C(=O)N[C@@H](CC(C)C)[C@@H](O)CC(=O)O)C(C)C)C(C)C [Pepstatin] (Isovaleryl-VV[Sta]A[Sta]-OH) | significant stabilizing effect | approximately 0.02 ug/ml | – | – | – | – | – | – | – | – | – | – | – | – |
| Poly-D-glutamic acid | – | – | detectable mesenchymal changes | not much fibrotic reaction | ≥ 10 | does not cause marked abnormalities | could not be observed | considerably increased | labeled with EPO antibody | strongly stain | persistence | consistent labeling | angiogenesis | increased |
